Laboratory results published in ChEMBL document CHEMBL1201862, “PubChem BioAssay data set” (2004).
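Growth conditions: 96-well plates. Treatment: test compound, 48 hours, 5 concentrations. Analysis: linear interpolation between bracketing concentrations; unreached endpoints set to highest concentration. Here, GI50 denotes the concentration required for 50% inhibition of growth.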 Calls of active or inactive are those of the source. Rule as the data show it: active = GI50 up to about 1.1 µM and inactive = higher.

Assays:
Assay in all cases: inhibition of tumour cell growth, NCI panel, 48 h
[1] = test system: NCI-H226
[2] = test system: HOP-62
[3] = test system: UACC-62
[4] = test system: SK-MEL-2
[5] = test system: NCI-H23
[6] = test system: U-251
[7] = test system: OVCAR-3
[8] = test system: IGROV-1
[9] = test system: SK-MEL-28
[10] = test system: HT-29
[11] = test system: SNB-75
[12] = test system: HCT-15
[13] = test system: SF-539
[14] = test system: HL-60
[15] = test system: SF-295
[16] = test system: A549
[17] = test system: NCI/ADR-RES
[18] = test system: T47D
[19] = test system: Hs-578T
[20] = test system: MCF7

Row | Structure (SMILES) | GI50 [1] | GI50 [2] | GI50 [3] | GI50 [4] | GI50 [5] | GI50 [6] | GI50 [7] | GI50 [8] | GI50 [9] | GI50 [10] | GI50 [11] | GI50 [12] | GI50 [13] | GI50 [14] | GI50 [15] | GI50 [16] | GI50 [17] | GI50 [18] | GI50 [19] | GI50 [20]
1 | O=C1OC(c2ccccc2)=N/C1=C/NC(CS)C(=O)O (stereo unspecified) | > 100 µM (inactive) | > 100 µM (inactive) | > 100 µM (inactive) | > 100 µM (inactive) | > 100 µM (inactive) | > 100 µM (inactive) | > 100 µM (inactive) | > 100 µM (inactive) | > 100 µM (inactive) | > 100 µM (inactive) | 64.3 µM (inactive) | > 100 µM | > 100 µM (inactive) | > 100 µM (inactive) | > 100 µM (inactive) | > 100 µM (inactive) |  |  |  | 
2 | O=[N+]([O-])c1ccc(/C(Cl)=C/c2ccc(/C=C(\Cl)c3ccc([N+](=O)[O-])cc3[N+](=O)[O-])cc2)c([N+](=O)[O-])c1 | > 100 µM (inactive) | > 100 µM (inactive) | > 100 µM (inactive) | > 100 µM (inactive) | > 100 µM (inactive) | > 100 µM (inactive) | 0.729 µM (active) | > 100 µM (inactive) | > 100 µM (inactive) | > 100 µM (inactive) | > 100 µM (inactive) | > 100 µM | > 100 µM (inactive) | 57.4 µM (inactive) | > 100 µM (inactive) | > 100 µM (inactive) |  |  |  | 
3 | N#Cc1c(N2CCCC2)nsc1Nc1ccccc1 | > 100 µM (inactive) |  |  | > 100 µM (inactive) | > 100 µM (inactive) |  |  | > 100 µM (inactive) | > 100 µM (inactive) | > 100 µM (inactive) | > 100 µM (inactive) | > 100 µM | > 100 µM (inactive) | > 100 µM (inactive) | > 100 µM (inactive) | > 100 µM (inactive) | > 100 µM (inactive) | > 100 µM (inactive) | > 100 µM (inactive) | 
4 | C=C(C)COC(=O)COCC(=O)OCC(=C)C | > 100 µM (inactive) | > 100 µM (inactive) | > 100 µM (inactive) |  | > 100 µM (inactive) | > 100 µM (inactive) | > 100 µM (inactive) | > 100 µM (inactive) | > 100 µM (inactive) | > 100 µM (inactive) | > 100 µM (inactive) | > 100 µM |  |  | > 100 µM (inactive) | > 100 µM (inactive) | > 100 µM (inactive) | > 100 µM (inactive) | > 100 µM (inactive) | > 100 µM (inactive)
5 | C/C(=N\NC(N)=S)c1cc(C)c(C)cc1C | > 100 µM (inactive) | > 100 µM (inactive) | 30.9 µM (inactive) | 34.6 µM (inactive) | 41.7 µM (inactive) | 48.6 µM (inactive) | 24.4 µM (inactive) | 31 µM (inactive) | 86.7 µM (inactive) | 20.2 µM (inactive) | 30.6 µM (inactive) | 83.8 µM | 35.5 µM (inactive) | 21.7 µM (inactive) | 47 µM (inactive) | 45.2 µM (inactive) |  |  |  | 
6 | O=C(NC1C(=O)NNC1c1ccccc1Cl)c1ccccc1 (stereo unspecified) | 83 µM (inactive) | > 100 µM (inactive) | > 100 µM (inactive) | > 100 µM (inactive) | > 100 µM (inactive) | > 100 µM (inactive) | > 100 µM (inactive) | > 100 µM (inactive) | > 100 µM (inactive) | > 100 µM (inactive) | > 100 µM (inactive) | > 100 µM | > 100 µM (inactive) | > 100 µM (inactive) | > 100 µM (inactive) | > 100 µM (inactive) |  |  |  | 
7 | CN(C)C(=S)/N=c1\ss/c(=N\C(=S)N(C)C)n1C1CCCCC1 | > 100 µM (inactive) | > 100 µM (inactive) | 1.06 µM (active) | > 100 µM (inactive) | 63.2 µM (inactive) | 27.4 µM (inactive) | > 100 µM (inactive) | > 100 µM (inactive) | > 100 µM (inactive) | 0.458 µM (active) | 76.4 µM (inactive) | > 100 µM | > 100 µM (inactive) | 69 µM (inactive) | > 100 µM (inactive) | > 100 µM (inactive) |  |  |  | 
8 | CC1(C)O[C@H](C(=O)O)[C@@H](C(=O)O)O1 | > 100 µM (inactive) | > 100 µM (inactive) | > 100 µM (inactive) | > 100 µM (inactive) |  | > 100 µM (inactive) |  | > 100 µM (inactive) | > 100 µM (inactive) | > 100 µM (inactive) | > 100 µM (inactive) | > 100 µM | > 100 µM (inactive) |  | > 100 µM (inactive) | > 100 µM (inactive) | > 100 µM (inactive) | > 100 µM (inactive) | > 100 µM (inactive) | > 100 µM (inactive)
9 | O=c1c2ccccc2c(=O)c2c1c1[nH]c3ccccc3c1c1c(=O)c3ccccc3c(=O)c21 | > 100 µM (inactive) | > 100 µM (inactive) | > 100 µM (inactive) | > 100 µM (inactive) | > 100 µM (inactive) | > 100 µM (inactive) | > 100 µM (inactive) | > 100 µM (inactive) | > 100 µM (inactive) | > 100 µM (inactive) | > 100 µM (inactive) | > 100 µM | > 100 µM (inactive) | > 100 µM (inactive) | > 100 µM (inactive) | > 100 µM (inactive) |  |  |  | 
10 | CCOC(=O)C1C(=O)CC(O)(OCC)C(C(=O)OCC)C1c1ccc(OC)cc1 (stereo unspecified) | > 100 µM (inactive) | > 100 µM (inactive) | > 100 µM (inactive) | > 100 µM (inactive) | > 100 µM (inactive) | > 100 µM (inactive) | > 100 µM (inactive) | > 100 µM (inactive) | > 100 µM (inactive) | > 100 µM (inactive) | > 100 µM (inactive) | > 100 µM |  | > 100 µM (inactive) | > 100 µM (inactive) | > 100 µM (inactive) | > 100 µM (inactive) | > 100 µM (inactive) |  | > 100 µM (inactive)
11 | O=[N+]([O-])c1ccc(O)c(/C=N/CC2CCCN3CCCCC23)c1 (stereo unspecified) | 26.5 µM (inactive) | 83.4 µM (inactive) | 27.9 µM (inactive) |  | 46.7 µM (inactive) |  | 31 µM (inactive) | 43.9 µM (inactive) |  | 35.6 µM (inactive) | 23.7 µM (inactive) | 41.1 µM | 25.6 µM (inactive) |  | 31.2 µM (inactive) | 91.4 µM (inactive) | 20.7 µM (inactive) |  | 16.9 µM (inactive) | 46.8 µM (inactive)
12 | O=C(Nc1ccc([N+](=O)[O-])cc1C(=O)O)c1ccc([N+](=O)[O-])cc1 | 17.5 µM (inactive) | > 100 µM (inactive) | 42.8 µM (inactive) | 19.2 µM (inactive) |  | 37.4 µM (inactive) | 59.6 µM (inactive) | 29.2 µM (inactive) | 31.1 µM (inactive) | 29 µM (inactive) | > 100 µM (inactive) | 20.8 µM | 9.95 µM (inactive) | 17.1 µM (inactive) | > 100 µM (inactive) | 59.6 µM (inactive) |  |  |  | 
13 | CN1CCN(C(=S)N(C(=O)c2ccc(Cl)cc2)C2CCCCC2)CC1 | > 100 µM (inactive) |  | > 100 µM (inactive) | > 100 µM (inactive) | > 100 µM (inactive) | > 100 µM (inactive) | > 100 µM (inactive) | > 100 µM (inactive) | > 100 µM (inactive) | > 100 µM (inactive) | 20 µM (inactive) | > 100 µM |  | 61.7 µM (inactive) | > 100 µM (inactive) | > 100 µM (inactive) |  | > 100 µM (inactive) | 27.4 µM (inactive) | > 100 µM (inactive)
14 | O=S(=O)(O)c1cc(S(=O)(=O)O)c2c(/N=N/c3ccc(S(=O)(=O)O)c4ccccc34)c(O)ccc2c1 | > 100 µM (inactive) | > 100 µM (inactive) | > 100 µM (inactive) | > 100 µM (inactive) | > 100 µM (inactive) | > 100 µM (inactive) | > 100 µM (inactive) | > 100 µM (inactive) | > 100 µM (inactive) | > 100 µM (inactive) | > 100 µM (inactive) | > 100 µM |  | > 100 µM (inactive) | > 100 µM (inactive) | > 100 µM (inactive) | > 100 µM (inactive) | > 100 µM (inactive) | > 100 µM (inactive) | 
15 | N#C/C(=C\c1ccc(O)c(O)c1)C(N)=O | 37 µM (inactive) | 51.2 µM (inactive) | 52.7 µM (inactive) | > 100 µM (inactive) | 34 µM (inactive) | 33.9 µM (inactive) | 28.2 µM (inactive) | 76.4 µM (inactive) | 41 µM (inactive) | 69.8 µM (inactive) | 17.7 µM (inactive) | 50.6 µM | 30.5 µM (inactive) | 10.1 µM (inactive) | 39.1 µM (inactive) | 46.2 µM (inactive) |  |  |  | 
16 | COc1cc(CCc2ccc(N)cc2)cc(OC)c1OC | > 76.2 µM (inactive) | > 42.7 µM (inactive) | 38.7 µM (inactive) | 27.8 µM (inactive) | 92.3 µM (inactive) | > 53.2 µM (inactive) | 41.1 µM (inactive) | > 86.9 µM (inactive) | 46 µM (inactive) | 41.5 µM (inactive) | > 56 µM (inactive) | 43.4 µM | 26.1 µM (inactive) | > 48 µM (inactive) | 12.2 µM (inactive) | 51.6 µM (inactive) |  |  |  | 
17 | COC[C@H]1OC(=O)c2coc3c2[C@@]1(C)C1=C(C3=O)[C@@H]2CCC(=O)[C@@]2(C)C[C@H]1OC(C)=O [WORTMANNIN] |  | 3.05 µM (inactive) | 1.31 µM (inactive) | 2.21 µM (inactive) | 35.7 µM (inactive) |  | 4.65 µM (inactive) | 1.28 µM (inactive) | 7.45 µM (inactive) | 1.97 µM (inactive) | 0.323 µM (active) | 9.91 µM | 2.82 µM (inactive) |  | 2.96 µM (inactive) | 6.56 µM (inactive) | 38.8 µM (inactive) | 0.637 µM (active) |  | 5.66 µM (inactive)
